Values of other authors in US6562842B2, “Protease inhibitors” (SmithKline Beecham Corporation, priority 1995, dated 2003).

How the values were obtained:
[1] = system: bone resorption; settings: measured by acute changes in serum calcium; rats on calcium deficient diets
[2] = system: bone resorption; settings: mouse bone organ culture system
[3] = system: bone resorption; settings: mouse calvariae

| Compound | prevention of bone resorption in vivo [1] | prevention of bone resorption [2] | inhibition of PFH stimulated bone resorption [3] |
| --- | --- | --- | --- |
| CC(C)C[C@H](NC(=O)[C@H]1O[C@@H]1C(=O)O)C(=O)NCCCCN=C(N)N [Example E-64, E-64] | effective at preventing bone resorption in vivo |  |  |
| C[C@H](NC(=O)[C@H](Cc1ccccc1)NC(=O)OCc1ccccc1)C(=O)C=[N+]=[N-] [Z-Phe-Ala-CHN2] |  | prevent bone resorption |  |
| CC(=O)N[C@@H](CC(C)C)C(=O)N[C@@H](CC(C)C)C(=O)N[C@H](C=O)CCCNC(=N)N [leupeptin] | effective at preventing bone resorption in vivo | prevent bone resorption |  |
| cystatin |  |  | inhibits PFH stimulated bone resorption |
